{"source": "patent EP4671258A1", "about": "“RADIOACTIVE LABEL OF RISEDRONIC ACID DERIVATIVE, AND PRECURSOR COMPOUND THEREOF, AND PREPARATION METHOD THEREFOR AND USE THEREOF” (The Affiliated Hospital of Southwest Medical University, priority 2023, dated 2024)", "system": "tumor-bearing mice", "assay": "Comparative PET/CT imaging experiment in tumor-bearing mice (Test Example 2)", "type": "in vivo, nude mice", "details": "PET/CT whole-body imaging 2 hours after tail vein injection of about 0.1 ml (1 mCi/ml); MDA-MB-231 bone metastasis model", "experimental": "In this test example, the PET/CT imaging experiment of the ^68Ga-labeled compound represented by Formula II-1 of the present disclosure in tumor-bearing mice was disclosed. • (1) Establishment of tumor-bearing mouse model: 12 SPF female nude mice were prepared. After isoflurane anesthesia, the skin around the left knee joint was disinfected. The left hind limb was bent and an insulin needle (29G needle) was used to insert vertically into the femur from the concave point of the femoral head joint fossa. The needle was slowly rotated into the bone marrow cavity and 25µl (containing about 2×10^6 cells) of MDA-MB-231 (human breast cancer cells, from ATCC) cell culture medium was injected. After disinfection, the hole was sealed with sterile bone wax, and the animal was placed on a 37°C hot plate to rewarm. After recovery, it was returned to the cage for continued feeding. • (2) Verification of tumor-bearing mouse model: 4 weeks after inoculation, 12 nude mice were scanned using Micro-CT respectively.\nIn this test example, a comparative PET/CT imaging experiment of the ^68Ga-labeled compound represented by Formula II-1 of the present disclosure and ^68Ga-DOTA-ibandronic acid in tumor-bearing mice was disclosed. The ^68Ga-DOTA-ibandronic acid was prepared according to the method No.5 in Table 1 in the description of the published Chinese patent application with application number 202111419244.X.\nFour successfully modeled tumor-bearing mice were taken, in which two mice were injected with about 0.1 ml of the freshly prepared ^68Ga-labeled compound represented by Formula II-1 (with a concentration of 1 mCi/ml) via the tail vein, and the other two mice were injected with about 0.1 ml of the freshly prepared ^68Ga-DOTA-ibandronic acid (with a concentration of 1 mCi/ml) via the tail vein. PET/CT whole-body imaging was performed 2 hours after injection.\nThe T/N value was calculated according to the following formula: T/N value = SUVmax of lesion/SUVmax of background tissue [formula] Table 1: Imaging results of tumor-bearing mice"}
{"substance": "^68Ga-DOTA-ibandronic acid", "values": [{"measurement": "Head SUVmax", "result": 0.783}, {"measurement": "Head SUVmin", "result": 0.230}, {"measurement": "Lesion SUVmax", "result": 0.647}, {"measurement": "Lesion SUVmin", "result": 0.139}, {"measurement": "Liver SUVmax", "result": 0.067}, {"measurement": "Liver SUVmin", "result": 0.046}]}
